≈ marks a conversion by molar mass, not a printed value. Like-named read-outs stand apart in the source and are kept apart here.

The subject of experiment [1] is Enterococcus faecalis ATCC 19433. In words: Inhibition of bacterial growth in culture, spiral gradient endpoint assay (MIC). Format: cell-based. The note with it: for MIC: Enterococcus faecalis, ATCC 19433 /, 16 h. The text has this: J. Microbiol. Meths. […] Int. J. Exp. Clin. Chemother. […] Adv.
Experiment [2] deals with Escherichia coli D21f2tolC. The note with it: Mueller-Hinton II agar, 16 h at 37° C.
Experiment [3] has as its system Staphylococcus aureus ATCC 12600. In words: Inhibition of bacterial growth in culture, spiral gradient endpoint assay (MIC). To be noted: for MIC: Staphylococcus aureus, ATCC12600, 16 h.
Experiment [4] deals with Escherichia coli D21f2tolC. The experiment in a line: microbe, parasite or virus in culture. The note with it: 16 h.
[5] abbreviates: Mueller-Hinton II agar, 16 h at 37° C.
[6] abbreviates: read-out: MIC E. faecalis, Mueller-Hinton II agar, 16 h at 37° C.
[7] abbreviates: read-out: MIC E. coli D21f2tolC, Mueller-Hinton II agar, 16 h at 37° C.
Setting [8] is: read-out: MIC S. aureus 12600, Mueller-Hinton II agar, 16 h at 37° C.

As for `CCC1=C(O)C(CC)(CC)C(=O)C(C(=O)C2CC2c2ccc(Cl)cc2)=C1O` (stereo not drawn) [Example 89, 2-(2-(4-chlorophenyl)cyclopropanecarbonyl)-4,6,6-triethyl-3,5-dihydroxycyclohexa-2,4-dienone], in experiment [1] (setting [5]), the “MIC E. faecalis H37Rv” value was over 40 mg/L. Moreover, the “MIC E. coli D21f2tolC” value in experiment [2] is 3.0 mg/L (≈ 7.71 µM). For the same molecule, the “MIC S. aureus 12600” value in experiment [3] (setting [5]) came out at 7.9 mg/L (≈ 20.3 µM).

For the molecule `CCC1=C(O)C(CC)(CC)C(=O)C(C(=O)C2CC2c2ccc(Oc3ccc(F)cc3)cc2)=C1O` (stereo not drawn) [Example 62, 4,6,6-triethyl-2-(2-(4-(4-fluorophenoxy)phenyl)cyclopropanecarbonyl)-3,5-dihydroxycyclohexa-2,4-dienone], the MIC was 0.51 mg/L (≈ 1.1 µM) in experiment [1] (setting [6]), 0.28 mg/L (≈ 0.603 µM) in experiment [4] (setting [7]) and 0.4 mg/L (≈ 0.861 µM) in experiment [3] (setting [8]).

As for `Cc1ccc(CCC(=O)c2c(O)cc(O)cc2O)s1` [Example 1, 3-(5-methylthiophen-2-yl)-1-(2,4,6-trihydroxyphenyl)propan-1-one], the results for the MIC in experiment [1] (setting [6]), in experiment [4] (setting [7]) and in experiment [3] (setting [8]) were over 40 mg/L, 24 mg/L (≈ 86.2 µM) and 32 mg/L (≈ 115 µM), respectively.

Regarding `O=C(c1c(O)cc(O)c(Cl)c1O)C1CC1c1ccc(Cl)cc1C(F)(F)F` (stereo not drawn) [Example 54, (3-chloro-2,4,6-trihydroxyphenyl)(2-(4-chloro-2-(trifluoromethyl)phenyl)cyclopropyl)methanone], the MIC in experiment [1] (setting [6]) came out at 17 mg/L (≈ 41.8 µM); in experiment [4] (setting [7]), 17 mg/L (≈ 41.8 µM); in experiment [3] (setting [8]) it was 12 mg/L (≈ 29.5 µM).

As to `CCCC1(CCC)C(=O)C(C(=O)C2CC2c2ccc(Oc3ccc(F)cc3)cc2)=C(O)C=C1O` (stereo not drawn) [Example 65, 2-(2-(4-(4-fluorophenoxy)phenyl)cyclopropanecarbonyl)-3,5-dihydroxy-6,6-dipropylcyclohexa-2,4-dienone], the MIC in experiment [1] (setting [6]) is 1.9 mg/L (≈ 4.09 µM); in experiment [4] (setting [7]), over 40 mg/L; in experiment [3] (setting [8]), 1.9 mg/L (≈ 4.09 µM).

As for `O=C(CCc1ccc(Oc2ccc(F)cc2)cc1)c1c(O)cc(O)cc1O` [Example 10, 3-(4-(4-fluorophenoxy)phenyl)-1-(2,4,6-trihydroxyphenyl)propan-1-one], the MIC in experiment [1] (setting [6]) amounted to 5.1 mg/L (≈ 13.8 µM); in experiment [4] (setting [7]) it was 1.5 mg/L (≈ 4.07 µM); in experiment [3] (setting [8]), 3.1 mg/L (≈ 8.42 µM).

Regarding `CC1=C(O)C(C)(C)C(=O)C(C(=O)C2CC2c2ccc(Cl)cc2C)=C1O` (stereo not drawn) [Example 77, 2-(2-(4-chloro-2-methylphenyl)cyclopropanecarbonyl)-3,5-dihydroxy-4,6,6-trimethylcyclohexa-2,4-dienone], the MIC was over 40 mg/L in experiment [1] (setting [6]), 7.4 mg/L (≈ 20.5 µM) in experiment [4] (setting [7]) and over 40 mg/L in experiment [3] (setting [8]).

As for `Cc1cc(Oc2ccc(Cl)cc2)ccc1CCC(=O)c1c(O)cc(O)cc1O` [Example 24, 3-(4-(4-chlorophenoxy)-2-methylphenyl)-1-(2,4,6-trihydroxyphenyl)propan-1-one], the MIC stood at 3 mg/L (≈ 7.52 µM) in experiment [1] (setting [6]), 1.1 mg/L (≈ 2.76 µM) in experiment [4] (setting [7]) and 1.8 mg/L (≈ 4.51 µM) in experiment [3] (setting [8]).

On to `CCC1=C(O)C(CC)(CC)C(=O)C(C(=O)CCc2ccc(Oc3ccc(F)cc3)cc2C)=C1O` [Example 74, 4,6,6-triethyl-2-(3-(4-(4-fluorophenoxy)-2-methylphenyl)propanoyl)-3,5-dihydroxycyclohexa-2,4-dienone], for which the MIC was determined as 11 mg/L (≈ 23.6 µM) in experiment [1] (setting [6]), 0.9 mg/L (≈ 1.93 µM) in experiment [4] (setting [7]) and 1.7 mg/L (≈ 3.64 µM) in experiment [3] (setting [8]).

For the molecule `CC1=C(O)C(C)(C)C(=O)C(C(=O)C2CC2c2ccc(Oc3ccc(F)cc3)cc2C(F)(F)F)=C1O` (stereo not drawn) [Example 85, 2-(2-(4-(4-fluorophenoxy)-2-(trifluoromethyl)phenyl)cyclopropanecarbonyl)-3,5-dihydroxy-4,6,6-trimethylcyclohexa-2,4-dienone], the MIC in experiment [1] (setting [6]) was over 40 mg/L; in experiment [4] (setting [7]), 4 mg/L (≈ 8.16 µM); in experiment [3] (setting [8]) it was 12 mg/L (≈ 24.5 µM).

As for `O=C(c1c(O)cc(O)cc1O)C1CC1c1ccc(C(F)(F)F)cc1C(F)(F)F` (stereo not drawn) [Example 57, (2-(2,4-bis(trifluoromethyl)phenyl)cyclopropyl)(2,4,6-trihydroxyphenyl)methanone], the MIC in experiment [1] (setting [6]) amounted to 5.7 mg/L (≈ 14 µM); in experiment [4] (setting [7]) it was 3.5 mg/L (≈ 8.61 µM); in experiment [3] (setting [8]), 4.3 mg/L (≈ 10.6 µM).

On to `Cc1cc(Oc2ccc(Cl)cc2)ccc1C1CC1C(=O)c1c(O)cc(O)cc1O` (stereo not drawn) [Example 26, (2-(4-(4-chlorophenoxy)-2-methylphenyl)cyclopropyl)(2,4,6-trihydroxyphenyl)methanone], for which the MIC was 2.1 mg/L (≈ 5.11 µM) in experiment [1] (setting [6]), 1.4 mg/L (≈ 3.41 µM) in experiment [4] (setting [7]) and 1.4 mg/L (≈ 3.41 µM) in experiment [3] (setting [8]).

For `O=C(CCc1ccc(Oc2ccc(Cl)cc2)cc1)c1c(O)cc(O)cc1O` [Example 4, 3-(4-(4-chlorophenoxy)phenyl)-1-(2,4,6-trihydroxyphenyl)propan-1-one], the MIC in experiment [1] (read-out: MIC E. faecalis) is 3.2 mg/L (≈ 8.32 µM); in experiment [4] (read-out: MIC E. coli D21f2tolC), 1.5 mg/L (≈ 3.9 µM); in experiment [3] (read-out: MIC S. aureus 12600), 2.4 mg/L (≈ 6.24 µM).
